Data taken from patent US9169241B2, “Quinolinyloxyphenylsulfonamides” (Max-Planck-Gesellschaft Zur Forderung der Wissenschaften …, priority 2009, dated 2015).
pIC50: −log10 of the molar value. Like-named read-outs stand apart in the source and are kept apart here.

Legend:
SF126 = assay: Cell vitality assay (ATP assay, CellTiter-Glo); assay type: cell-based; details: Homo sapiens, SF-126; SF126, 72 h; Table IIa; read-out: IC50 ATP-Assay after 72 h SF126
Procedure, shortened: (§1)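 Steps: seed 1000 cells per well; add compound (0.195–12.5 μM, 7 points) or DMSO; incubate 72 h; equilibrate to room temperature ~30 min; add reagent, shake 2 min, stand 10 min; read luminescence. IC50 relative to DMSO-control ATP.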

SF763 = assay: Cell vitality assay (ATP assay, CellTiter-Glo); assay type: cell-based; details: SF763, 72 h; Table IIa; read-out: IC50 ATP-Assay after 72 h SF763
Procedure, shortened: as §1

U118 [1] = assay: Cell vitality assay (ATP assay, CellTiter-Glo); assay type: cell-based; details: U118, 72 h; Table IIa; read-out: IC50 ATP-Assay after 72 h U118
Procedure, shortened: as §1

U138 = assay: Cell vitality assay (ATP assay, CellTiter-Glo); assay type: cell-based; details: U138, 72 h; Table IIa; read-out: IC50 ATP-Assay after 72 h U138
Procedure, shortened: as §1

indicated cell line = assay: Wound healing migration assay (Table IV); assay type: cell-based; details: compounds at 12.5, 6.25, 3.125 μM, 48 h-72 h
Procedure, shortened: (§2)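 Cells seeded at 150000/24 well, grown to monolayer overnight, scratched with a pipette tip, then treated with compound at 12.5, 6.25 or 3.125 μM versus DMSO. Stopped by crystal violet fixation at 48-72 h once control wounds closed; IC50 taken as 50% wound size between t0 and t48 or t72.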

U118 [2] = assay: Matrigel outgrowth assay/branching assay; assay type: cell-based; details: Table Vb, read-out: Total branching inhibition in Matrigel U118
Procedure, shortened: (§3)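 Step one: Matrigel (3 mg/ml) is set for 1 h at 37° C. Step two: 5000 cells per well go on in medium with compound (0.78–3.125 μM) or DMSO. Step three: images at 48, 72 and 96 h are scored for complete loss of branching.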

cells = assay: Boyden chamber migration assay (Table VI); assay type: cell-based; details: Hs578T cells, 16 h migration
Procedure, shortened: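 20000 cells seeded in the upper compartment in 0% FCS plus 0.1% BSA and left 16 h to migrate through […] membrane toward 10% FCS medium below. Non-migrated cells swabbed off; cells on the filter underside fixed and counted.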

Hs578T [3] = assay: Cell vitality assay (ATP assay, CellTiter-Glo); assay type: cell-based; details: Homo sapiens, Hs-578T, 72 h
Procedure, shortened: as §1

Hs578T [4] = assay: Matrigel outgrowth assay/branching assay; assay type: cell-based; details: Homo sapiens, Hs-578T; HS578T cell line; Table Ib; read-out: Total branching inhibition in Matrigel HS578T
Procedure, shortened: as §3

Hs578T [5] = assay: Wound healing migration assay; assay type: cell-based; details: Homo sapiens, Hs-578T; HS578T cell line; Table Ib
Procedure, shortened: as §2

[6] = Homo sapiens, C8161 cells, read-out: IC50 Wound healing Assay C8161
[7] = SF763 cells, read-out: IC50 Wound healing Assay SF763
[8] = Hs578T, Table IIa, read-out: IC50 ATP-Assay after 72 h Hs578T
[9] = HS578T cell line, Table Ib, read-out: IC50 ATP-Assay HS578T after 72 h

`COc1cc2c(Oc3ccc(NS(=O)(=O)c4cccc(Oc5ccccc5)c4)cc3F)ccnc2cc1OCCCN1CCN(C)CC1` [Example 14, N-(3-Fluoro-4-{6-methoxy-7-[3-(4-methyl-piperazin-1-yl)-propoxy]-quinolin-4-yloxy}-phenyl)-3-phenoxy-benzenesulfonamide] gave a pIC50 (SF126) of at least 4.90, a pIC50 (SF763) of at least 4.90 and a pIC50 (U118 [1]) of 4.30 to 4.90. For the same compound, the pIC50 (U138) was 4.30 to 4.90, the pIC50 (indicated cell line; [6]) was 4.30 to 4.90 and the pIC50 (indicated cell line; [7]) was 4.30 to 4.90. For the same compound, the IC100 (U118 [2]) was at most 12.5 µM, the pIC50 (cells; Homo sapiens, Hs-578T, 16 h) was at least 5.30 and the melting point was 140 to 141 °C.
`COc1cc2c(Oc3ccc(NS(=O)(=O)c4c(Cl)cccc4Cl)cc3F)ccnc2cc1OCCCN1CCN(C)CC1` [Example 32, 2,6-Dichloro-N-(3-fluoro-4-{6-methoxy-7-[3-(4-methyl-piperazin-1-yl)-propoxy]-quinolin-4-yloxy}-phenyl)-benzenesulfonamide] showed a pIC50 (Hs578T [3]; [8]) of at least 4.90, a pIC50 (SF126) of at least 4.90 and a pIC50 (SF763) of at least 4.90. For the same compound, the pIC50 (U118 [1]) was at least 4.90, the pIC50 (U138) was at least 4.90 and the pIC50 (indicated cell line; [6]) was at least 4.90. It also gave a pIC50 (indicated cell line; [7]) of at least 4.90, a pIC50 (Hs578T [4]) of at least 5.00 and a pIC50 (cells; Homo sapiens, Hs-578T, 16 h) of at least 5.30. The melting point was 113 to 116 °C.
In the case of `COc1cc2c(Oc3ccc(NS(=O)(=O)c4ccccc4OC)cc3F)ccnc2cc1OCCCN1CCN(C)CC1` [Example 33, N-(3-Fluoro-4-{6-methoxy-7-[3-(4-methyl-piperazin-1-yl)-propoxy]-quinolin-4-yloxy}-phenyl)-2-methoxy-benzenesulfonamide], the pIC50 (Hs578T [3]; [8]) was at least 4.90, the pIC50 (SF126) was at least 4.90 and the pIC50 (SF763) was at least 4.90. It also gave a pIC50 (U118 [1]) of at least 4.90, a pIC50 (U138) of at least 4.90 and a pIC50 (indicated cell line; [6]) of at least 4.90. For the same compound, the pIC50 (indicated cell line; [7]) was 4.30 to 4.90, the pIC50 (Hs578T [4]) was at least 5.00 and the pIC50 (cells; Homo sapiens, Hs-578T, 16 h) was at least 5.30. The melting point was 168 to 170 °C.
With `COc1cc2c(Oc3ccc(NS(=O)(=O)c4cccc(C#N)c4)cc3F)ccnc2cc1OCCCN1CCCC(C)C1` (stereo not shown) [Example 41, 3-Cyano-N-(3-fluoro-4-{6-methoxy-7-[3-(3-methyl-piperidin-1-yl)-propoxy]-quinolin-4-yloxy}-phenyl)-benzenesulfonamide] the pIC50 (Hs578T [3]; [8]) was at least 4.90, the pIC50 (SF126) was 4.30 to 4.90 and the pIC50 (SF763) was at least 4.90. For the same compound, the pIC50 (U118 [1]) was at least 4.90, the pIC50 (U138) was at least 4.90 and the pIC50 (indicated cell line; [6]) was 4.30 to 4.90. It also gave a pIC50 (indicated cell line; [7]) of at least 4.90, a pIC50 (Hs578T [4]) of at least 5.00 and a pIC50 (cells; Homo sapiens, Hs-578T, 16 h) of at least 5.30. The melting point was 125 to 127 °C.
With `COc1cc2c(Oc3ccc(NS(=O)(=O)c4cc(C)ccc4F)cc3F)ccnc2cc1OCCCN1CCCC(C)C1` (stereo not shown) [Example 55] the pIC50 (Hs578T [3]; [9]) was 4.30 to 4.90, the pIC50 (Hs578T [3]; [8]) was 4.30 to 4.90 and the pIC50 (SF126) was at least 4.90. For the same compound, the pIC50 (SF763) was 4.30 to 4.90, the pIC50 (U118 [1]) was 4.30 to 4.90 and the pIC50 (U138) was 4.30 to 4.90. It also gave a pIC50 (Hs578T [5]) of at least 4.90, a pIC50 (indicated cell line; [6]) of 4.30 to 4.90 and a pIC50 (indicated cell line; [7]) of 4.30 to 4.90. The pIC50 (Hs578T [4]) was at least 5.00, the pIC50 (cells; Homo sapiens, Hs-578T, 16 h) was at least 5.30 and the melting point was 149 to 151 °C.
`COc1cc2c(Oc3ccc(NS(=O)(=O)c4ccc(C)c(F)c4)cc3F)ccnc2cc1OCCCN1CCCC(C)C1` (stereo not shown) [Example 56, 3-Fluoro-N-(3-fluoro-4-{6-methoxy-7-[3-(3-methyl-piperidin-1-yl)-propoxy]-quinolin-4-yloxy}-phenyl)-4-methyl-benzenesulfonamide] showed a pIC50 (Hs578T [3]; [9]) of 4.30 to 4.90, a pIC50 (Hs578T [3]; [8]) of 4.30 to 4.90 and a pIC50 (SF126) of at least 4.90. The pIC50 (SF763) was at least 4.90, the pIC50 (U118 [1]) was 4.30 to 4.90 and the pIC50 (U138) was at least 4.90. The pIC50 (Hs578T [5]) was at least 4.90, the pIC50 (indicated cell line; [6]) was at least 4.90 and the pIC50 (indicated cell line; [7]) was 4.30 to 4.90. For the same compound, the pIC50 (Hs578T [4]) was 4.60 to 5.00, the pIC50 (cells; Homo sapiens, Hs-578T, 16 h) was at least 5.30 and the melting point was 174 to 176 °C.
Work on `COc1cc2c(Oc3ccc(NS(=O)(=O)c4cccc(Oc5ccccc5)c4)cc3F)ccnc2cc1OCCCN1CCCC(C)C1` (stereo not shown) [Example 59, N-(3-Fluoro-4-{6-methoxy-7-[3-(3-methyl-piperidin-1-yl)-propoxy]-quinolin-4-yloxy}-phenyl)-3-phenoxy-benzenesulfonamide] yielded a pIC50 (Hs578T [3]; [9]) of at least 4.90, a pIC50 (Hs578T [3]; [8]) of at least 4.90 and a pIC50 (SF126) of 4.30 to 4.90. It also gave a pIC50 (SF763) of at least 4.90, a pIC50 (U118 [1]) of 4.30 to 4.90 and a pIC50 (U138) of at least 4.90. The pIC50 (Hs578T [5]) was at least 4.90, the pIC50 (indicated cell line; [6]) was 4.30 to 4.90 and the pIC50 (indicated cell line; [7]) was at least 4.90. It also gave a pIC50 (Hs578T [4]) of at least 5.00, a pIC50 (cells; Homo sapiens, Hs-578T, 16 h) of at least 5.30 and a melting point of 146 to 147 °C.
`COc1cc2c(Oc3ccc(NS(=O)(=O)c4ccc(Cl)s4)cc3F)ccnc2cc1OCCCN1CCCC(C)C1` (stereo not shown) [Example 63, 5-Chloro-thiophene-2-sulfonic acid (3-fluoro-4-{6-methoxy-7-[3-(3-methyl-piperidin-1-yl)-propoxy]-quinolin-4-yloxy}-phenyl)-amide] showed a pIC50 (Hs578T [3]; [9]) of at least 4.90, a pIC50 (Hs578T [3]; [8]) of at least 4.90 and a pIC50 (SF126) of 4.30 to 4.90. The pIC50 (SF763) was at least 4.90, the pIC50 (U118 [1]) was at least 4.90 and the pIC50 (U138) was 4.30 to 4.90. The pIC50 (Hs578T [5]) was at least 4.90, the pIC50 (indicated cell line; [6]) was 4.30 to 4.90 and the pIC50 (indicated cell line; [7]) was at least 4.90. The pIC50 (Hs578T [4]) was at least 5.00, the pIC50 (cells; Homo sapiens, Hs-578T, 16 h) was at least 5.30 and the melting point was 100 to 103 °C.
`COc1cc2c(Oc3ccc(NS(=O)(=O)c4cccc(C)c4)cc3F)ccnc2cc1OCCCN1CCCC(C)C1` (stereo not shown) [Example 70, N-(3-Fluoro-4-{6-methoxy-7-[3-(3-methyl-piperidin-1-yl)-propoxy]-quinolin-4-yloxy}-phenyl)-3-methyl-benzenesulfonamide] showed a pIC50 (Hs578T [3]; [8]) of 4.30 to 4.90, a pIC50 (SF126) of at least 4.90 and a pIC50 (SF763) of 4.30 to 4.90. For the same compound, the pIC50 (U118 [1]) was at least 4.90, the pIC50 (U138) was at least 4.90 and the pIC50 (indicated cell line; [6]) was 4.30 to 4.90. It also gave a pIC50 (indicated cell line; [7]) of at least 4.90, a pIC50 (Hs578T [4]) of at least 5.00 and a pIC50 (cells; Homo sapiens, Hs-578T, 16 h) of at least 5.30. It also gave a melting point of 168 to 170 °C.
Work on `COc1cc2c(Oc3ccc(NS(=O)(=O)c4ccc(F)c(C#N)c4)cc3F)ccnc2cc1OCCCN1CCCC(C)C1` (stereo not shown) [Example 72, 3-Cyano-4-fluoro-N-(3-fluoro-4-{6-methoxy-7-[3-(3-methyl-piperidin-1-yl)-propoxy]-quinolin-4-yloxy}-phenyl)-benzenesulfonamide] yielded a pIC50 (Hs578T [3]; [8]) of 4.30 to 4.90, a pIC50 (SF126) of 4.30 to 4.90 and a pIC50 (SF763) of 4.30 to 4.90. The pIC50 (U118 [1]) was 4.30 to 4.90, the pIC50 (U138) was 4.30 to 4.90 and the pIC50 (indicated cell line; [6]) was at least 4.90. It also gave a pIC50 (indicated cell line; [7]) of at least 4.90, a pIC50 (Hs578T [4]) of at least 5.00 and a pIC50 (cells; Homo sapiens, Hs-578T, 16 h) of at least 5.30. For the same compound, the melting point was 125 to 127 °C.
In the case of `COc1cc2c(Oc3ccc(NS(=O)(=O)c4ccccc4C(F)(F)F)cc3F)ccnc2cc1OCC(=O)N(C)C` [Example 93, 2-{4-[2-Fluoro-4-(2-trifluoromethyl-benzenesulfonylamino)-phenoxy]-6-methoxy-quinolin-7-yloxy}-N,N-dimethyl-acetamide], the pIC50 (Hs578T [3]; [8]) was at least 4.90, the pIC50 (SF126) was at least 4.90 and the pIC50 (SF763) was 4.30 to 4.90. The pIC50 (U118 [1]) was at least 4.90, the pIC50 (U138) was 4.30 to 4.90 and the pIC50 (indicated cell line; [6]) was at least 4.90. The pIC50 (indicated cell line; [7]) was 4.30 to 4.90, the pIC50 (Hs578T [4]) was at least 5.00 and the pIC50 (cells; Homo sapiens, Hs-578T, 16 h) was 4.30 to 5.30. For the same compound, the pIC50 (cells) was at least 5.30 and the melting point was 134 to 135 °C.
